Key:
Aurora A = molecular target: T1, Aurora A (Homo sapiens, UniProt O14965); test: IC50 determination for inhibitors of Aurora A (96 MTP-ELISA); assay type: biochemical; details: His4-tagged full-length Aurora A 250 ng/ml, PKB-GSK2 200 nM, ATP 4 μM, 90 min at room temperature, read-out: IC50 Aurora A kinase inhibition
T1 construct: C-terminally Histidine4 (His4)-tagged Aurora A full-length protein
T1 sequence (O14965 1-403): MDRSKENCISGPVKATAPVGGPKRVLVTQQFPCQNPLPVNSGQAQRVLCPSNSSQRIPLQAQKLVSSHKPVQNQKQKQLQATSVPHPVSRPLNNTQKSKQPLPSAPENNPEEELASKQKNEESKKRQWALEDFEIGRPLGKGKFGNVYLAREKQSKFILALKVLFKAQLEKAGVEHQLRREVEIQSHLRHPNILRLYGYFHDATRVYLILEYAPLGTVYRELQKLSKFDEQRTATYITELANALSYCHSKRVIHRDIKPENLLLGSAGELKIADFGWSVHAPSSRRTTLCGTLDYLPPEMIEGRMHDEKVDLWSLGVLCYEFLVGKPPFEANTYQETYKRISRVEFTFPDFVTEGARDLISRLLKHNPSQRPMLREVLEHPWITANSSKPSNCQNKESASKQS
Procedure: IC50 Determination for Inhibitors of Aurora A
• Aurora A is a serine threonine kinase involved in spindle assembly and chromosome segregation.
The assay is a typically ELISA-type assay where biotinylated substrate (PKB-GSK2) is phosphorylated. Phosphorylation is detected by peroxidase (POD) labelled polyclonal antibody (PAK<M-Ig>S-IgG-POD) and phosphopeptide monoclonal antibody (Mab) (MAK<P-GSK>M-27E5-IgG). The assay is validated for IC50-determination.
Method • This assay is performed in 96-well format for IC50 determination with 5 samples (each with 8 concentrations by twofold testing), 100 μl incubation volume and the following plate layout: […]

HCT 116 cells = test: CellTiter-Glo assay in HCT 116 cells; assay type: cell-based, human; details: 5 days incubation, 30 μM to 0.0015 μM
Text: CellTiter-Glo™ Assay in HCT 116 Cells
The CellTiter-Glo™ Luminescent Cell Viability Assay (Promega) is a homogeneous method of determining the number of viable cells in culture based on quantitation of the ATP present, which signals the presence of metabolically active cells.
HCT 116 cells (human colon carcinoma, ATCC-No. CCl-247) were cultivated in RPMI 1640 medium with GlutaMAX™ I (Invitrogen, Cat-No. 61870-010), 2.5% Fetal Calf Serum (FCS, Sigma Cat-No. F4135 (FBS)); 100 Units/ml penicillin/100 μg/ml streptomycin (=Pen/Strep from Invitrogen Cat. No. 15140). For the assay the cells were seeded in 384 well plates, 1000 cells per well, in the same medium. The next day the test compounds were added in various concentrations ranging from 30 μM to 0.0015 μM (10 concentrations, 1:3 diluted). After 5 days the CellTiter-Glo™ assay was done according to the instructions of the manufacturer (CellTiter-Glo™ Luminescent Cell Viability Assay, from Promega). In brief: the cell-plate was equilibrated to room temperature for approximately 30 minutes and than the CellTiter-Glo™ reagent was added. The contents were carefully mixed for 15 minutes to induce cell lysis. After 45 minutes the luminescent signal was measured in Victor 2, (scanning multiwell spectrophotometer, Wallac).
1st. Day: • Medium: RPMI 1640 with GlutaMAX™ I (Invitrogen, Cat-Nr. 61870), 5% FCS (Sigma Cat.-No. F4135), Pen/Strep (Invitrogen, Cat No. 15140). • HCT116 (ATCC-No. CCl-247): 1000 cells in 60 μl per well of 384 well plate (Greiner 781098, μClear-plate white) • After seeding incubate plates 24 h at 37° C., 5% CO2
2nd. Day: Induction (Treatment with Compounds, 10 Concentrations):
In order to achieve a final concentration of 30 μM as highest concentration 3.5 μl of 10 mM compound stock solution were added directly to 163 μl media. Then step e) of the dilution procedure described below, was followed.

Row | Compound | IC50 (Aurora A) | IC50 (HCT 116 cells; Homo sapiens, HCT-116, 120 h) | IC50 (HCT 116 cells)
1 | Cc1cc(Nc2nn(-c3ccc(-c4ccccc4)cc3)c(=O)c3ccccc23)n[nH]1 [Example Q-1, 2-Biphenyl-4-yl-4-(5-methyl-1H-pyrazol-3-ylamino)-2H-phthalazin-1-one] |  | 10 to 100 µM | 
2 | Cc1cc(Nc2nn(-c3ccc(C(C)(C)C)cc3)c(=O)c3cc(N)ccc23)[nH]n1 [Example ZB-2, 7-Amino-2-(4-tert-butyl-phenyl)-4-(5-methyl-2H-pyrazol-3-ylamino)-2H-phthalazin-1-one] |  | 0.1 to 10 µM | 
3 | Cc1cc(Nc2nn(C(C)C)c(=O)c3ccc(N4CCOCC4)cc23)n[nH]1 [Example F-2, 2-Isopropyl-4-(5-methyl-1H-pyrazol-3-ylamino)-6-morpholino-2H-phthalazin-1-one] |  | 0.1 to 10 µM | 
4 | Cc1cc(Nc2nn(C(C)C)c(=O)c3cc(C(=O)NC(C)C)ccc23)n[nH]1 [Example M-5, 3-Isopropyl-1-(5-methyl-1H-pyrazol-3-ylamino)-4-oxo-3,4-dihydro-phthalazine-6-carboxylic acid isopropylamide] |  | 0.1 to 10 µM | 
5 | Cc1cc(Nc2nn(-c3ccc(N4CCCC4)cc3)c(=O)c3ccccc23)n[nH]1 [Example U-3, 4-(5-Methyl-1H-pyrazol-3-ylamino)-2-(4-pyrrolidin-1-yl-phenyl)-2H-phthalazin-1-one] |  | 0.1 to 10 µM | 
6 | Cc1cc(Nc2nn(-c3ccccc3)c(=O)c3ccccc23)[nH]n1 [Example A-1, 4-(5-Methyl-2H-pyrazole-3-ylamino)-phenyl-2H-phthalazin-1-one] |  |  | 1.66 µM
7 | Cc1cc(Nc2nn(C(C)C)c(=O)c3cc(NS(C)(=O)=O)ccc23)n[nH]1 [Example J-2, N-[3-Isopropyl-1-(5-methyl-1H-pyrazol-3-ylamino)-4-oxo-3,4-dihydro-phthalazin-6-yl]-methanesulfonamide] |  | 0.1 to 10 µM | 
8 | Cc1cc(Nc2nn(CC(C)C)c(=O)c3ccccc23)n[nH]1 [Example A-4, 2-Isobutyl-4-(5-methyl-1H-pyrazol-3-ylamino)-2H-phthalazin-1-one] |  | 0.1 to 10 µM | 
9 | CCOC(=O)N(C)c1ccc2c(Nc3cc(C)[nH]n3)nn(C(C)C)c(=O)c2c1 [Example I-7, [3-Isopropyl-1-(5-methyl-1H-pyrazol-3-ylamino)-4-oxo-3,4-dihydro-phthalazin-6-yl]-methyl-carbamic acid ethyl ester] |  | 0.1 to 10 µM | 
10 | Cc1cc(Nc2nn(-c3ccc([S+]([O-])c4ccccc4)cc3)c(=O)c3ccccc23)n[nH]1 (centres unmarked) [Example ZA-2, 2-(4-Benzenesulfinyl-phenyl)-4-(5-methyl-1H-pyrazol-3-ylamino)-2H-phthalazin-1-one] |  | 0.1 to 10 µM | 
11 | Cc1cc(Nc2nn(-c3ccc(C(C)(C)C)cc3)c(=O)c3ccc(Br)cc23)[nH]n1 [Example ZB-6, 6-Bromo-2-(4-tert-butyl-phenyl)-4-(5-methyl-2H-pyrazol-3-ylamino)-2H-phthalazin-1-one] |  | 0.1 to 10 µM | 
12 | CSc1ccc(Cn2nc(Nc3cc(C)[nH]n3)c3ccccc3c2=O)cc1 [Example E-12, 4-(5-Methyl-1H-pyrazol-3-ylamino)-2-(4-methylsulfanyl-benzyl)-2H-phthalazin-1-one] |  | 0.1 to 10 µM | 
13 | Cc1cc(Nc2nn(-c3ccc(N)cc3)c(=O)c3ccccc23)n[nH]1 [Example C-2, 2-(4-Amino-phenyl)-4-(5-methyl-1H-pyrazol-3-ylamino)-2H-phthalazin-1-one] |  | 0.1 to 10 µM | 

Continued, values first:

Row | IC50 (Aurora A) | IC50 (HCT 116 cells; Homo sapiens, HCT-116, 120 h) | IC50 (HCT 116 cells) | Compound
14 | 0.1 to 1 µM | 0.1 to 10 µM |  | CNC(=O)c1ccc(-n2nc(Nc3cc(C)[nH]n3)c3ccccc3c2=O)cc1 [Example S-1, N-Methyl-4-[4-(5-methyl-1H-pyrazol-3-ylamino)-1-oxo-1H-phthalazin-2-yl]-benzamide]
15 | 0.1 to 1 µM | 0.1 to 10 µM |  | Cc1cc(Nc2nn(-c3ccccc3)c(=O)c3ccc(N)cc23)n[nH]1 [Example Z-1, 6-Amino-4-(5-methyl-1H-pyrazol-3-ylamino)-2-phenyl-2H-phthalazin-1-one]
16 |  | 0.1 to 10 µM |  | CCN(C(C)=O)c1ccc(-n2nc(Nc3cc(C)[nH]n3)c3ccccc3c2=O)cc1 [Example Y-1, N-Ethyl-N-{4-[4-(5-methyl-1H-pyrazol-3-ylamino)-1-oxo-1H-phthalazin-2-yl]-phenyl}-acetamide]
17 | 0.001 to 0.1 µM | 0.1 to 10 µM |  | COc1cccc(Cn2nc(Nc3cc(C)[nH]n3)c3ccccc3c2=O)c1 [Example A-12, 2-(3-Methoxy-benzyl)-4-(5-methyl-1H-pyrazol-3-ylamino)-2H-phthalazin-1-one]
18 |  | 0.1 to 10 µM |  | Cc1cc(Nc2nn(Cc3cc(F)ccc3F)c(=O)c3ccccc23)n[nH]1 [Example A-13, 2-(2,5-Difluoro-benzyl)-4-(5-methyl-1H-pyrazol-3-ylamino)-2H-phthalazin-1-one]
19 |  | 0.1 to 10 µM |  | CCOC(=O)N(C)c1ccc(-n2nc(Nc3cc(C)[nH]n3)c3ccccc3c2=O)cc1 [Example Y-3, Methyl-{4-[4-(5-methyl-1H-pyrazol-3-ylamino)-1-oxo-1H-phthalazin-2-yl]-phenyl}-carbamic acid ethyl ester]
20 | 0.001 to 0.1 µM | 0.1 to 10 µM |  | Cc1cc(Nc2nn(CC(F)(F)F)c(=O)c3ccccc23)n[nH]1 [Example A-5, 4-(5-Methyl-1H-pyrazol-3-ylamino)-2-(2,2,2-trifluoro-ethyl)-2H-phthalazin-1-one]
21 | 0.1 to 1 µM | 0.1 to 10 µM |  | Cc1cc(Nc2nn(-c3ccc(C(C)(C)C)cc3)c(=O)c3ccccc23)n[nH]1 [Example A-8, 2-(4-tert-Butyl-phenyl)-4-(5-methyl-1H-pyrazol-3-ylamino)-2H-phthalazin-1-one]
22 | 0.001 to 0.1 µM | 0.1 to 10 µM |  | Cc1cc(Nc2nn(C(C)C)c(=O)c3cc(N4CCOCC4)ccc23)n[nH]1 [Example F-1, 2-Isopropyl-4-(5-methyl-1H-pyrazol-3-ylamino)-7-morpholino-2H-phthalazin-1-one]
23 |  | 0.1 to 10 µM |  | Cc1cc(Nc2nn(CC3CC3)c(=O)c3ccccc23)n[nH]1 [Example E-11, 2-Cyclopropylmethyl-4-(5-methyl-1H-pyrazol-3-ylamino)-2H-phthalazin-1-one]
24 |  | 0.1 to 10 µM |  | COCC(=O)Nc1ccc(-n2nc(Nc3cc(C)[nH]n3)c3ccccc3c2=O)cc1 [Example T-2, 2-Methoxy-N-{4-[4-(5-methyl-1H-pyrazol-3-ylamino)-1-oxo-1H-phthalazin-2-yl]-phenyl}-acetamide]
25 |  | 0.1 to 10 µM |  | C=CCn1nc(Nc2cc(C)[nH]n2)c2ccccc2c1=O [Example E-10, 2-Allyl-4-(5-methyl-1H-pyrazol-3-ylamino)-2H-phthalazin-1-one]
26 |  | 0.1 to 10 µM |  | Cc1cc(Nc2nn(C(C)C)c(=O)c3cc(N(C)S(C)(=O)=O)ccc23)n[nH]1 [Example I-10, N-[3-Isopropyl-1-(5-methyl-1H-pyrazol-3-ylamino)-4-oxo-3,4-dihydro-phthalazin-6-yl]-N-methyl-methanesulfonamide]
27 |  | 0.1 to 10 µM |  | Cc1cc(Nc2nn(Cc3ccc(F)c(F)c3)c(=O)c3ccccc23)n[nH]1 [Example A-15, 2-(3,4-Difluoro-benzyl)-4-(5-methyl-1H-pyrazol-3-ylamino)-2H-phthalazin-1-one]
28 |  | 0.1 to 10 µM |  | Cc1cc(Nc2nn(C(C)C)c(=O)c3cc(SCCN4CCOCC4)ccc23)n[nH]1 [Example H-3, 2-Isopropyl-4-(5-methyl-1H-pyrazol-3-ylamino)-7-(2-morpholin-4-yl-ethylsulfanyl)-2H-phthalazin-1-one]
29 |  | 0.1 to 10 µM |  | Cc1cc(Nc2nn(-c3ccc(Cl)cc3)c(=O)c3ccccc23)n[nH]1 [Example B-1, 2-(4-Chloro-phenyl)-4-(5-methyl-1H-pyrazol-3-ylamino)-2H-phthalazin-1-one]

From patent US7226923B2, “Phthalazinone derivatives” (Hoffman-La Roche Inc., priority 2004, dated 2007)
